Data published in ChEMBL document CHEMBL3272295, “Drugs derived from cannabinoids. 5. delta6a,10a-Tetrahydrocannabinol and heterocyclic analogs containing aromatic side chains” (J Med Chem, 1976).
Activity calls are given as the source filed them.

How the values were obtained:
Rattus norvegicus [1] = test: Antipsychotic activity in rat assessed as reduction of methamphetamine-induced hyperactivity at 5 mg/kg, po administered prior to methamphetamine challenge relative to vehicle-treated control; format: functional; set-up: scale not given: the % may be the effect or the level left
Mus musculus [2] = test: Antidepressant activity in po dosed mouse assessed as potentiation of DOPA-induced effect administered 4 hrs prior to DOPA challenge; format: functional; details: read-out: MED
[3] = Acute toxicity in po dosed mouse; format: organism-based; details: in vivo
Rattus norvegicus [4] = test: Antipsychotic activity in rat assessed as reduction of methamphetamine-induced hyperactivity at 2.5 mg/kg, po administered prior to methamphetamine challenge relative to vehicle-treated control; format: functional; set-up: scale not given: the % may be the effect or the level left
Mus musculus [5] = test: Analgesic activity in po dosed mouse assessed as inhibition of acetic acid-induced writhing administered 30 mins prior to acetic acid challenge measured after 5 mins for 20 mins; format: functional
Rattus norvegicus [6] = test: Antianxiety activity in Long-Evans rat assessed as reduction in motor activity at 1.25 mg/kg, po after 2 hrs relative to vehicle-treated control; format: functional; set-up: scale not given: the % may be the effect or the level left
Rhesus monkey = test: Antianxiety activity in po dosed rhesus monkey assessed as antiagressive behavior measured every hour post dosing; format: functional; details: Macaca mulatta, read-out: MED
Mus musculus [7] = test: Antianxiety activity in albino BALB/cJ mouse assessed as reduction in footshock-induced fighting behavior at 10 mg/kg, po after 30 to 90 mins; format: functional; set-up: scale not given: the % may be the effect or the level left
Mus musculus [8] = test: Anticonvulsant activity in po dosed mouse assessed as dose required to protect 80% of animal measured after 1 to 4 hrs by audiogenic seizure test; format: functional
Rattus norvegicus [9] = test: Analgesic activity in Sprague-Dawley rat assessed as increase in pain threshold at 40 mg/kg, po after 15 to 90 mins by tail flick test; format: functional
Mus musculus [10] = test: Analgesic activity in mouse assessed as inhibition of acetic acid-induced writhing at 10 mg/kg, po administered 30 mins prior to acetic acid challenge measured after 5 mins for 20 mins; format: functional
Rattus norvegicus [11] = test: Antianxiety activity in Long-Evans rat assessed as reduction in motor activity at 10 mg/kg, po after 2 hrs relative to vehicle-treated control; format: functional; set-up: scale not given: the % may be the effect or the level left
Rattus norvegicus [12] = test: Antihypertensive activity in spontaneously hypertensive rat model assessed as reduction in blood pressure at 3 mg/kg, po after 3 hrs; format: functional; set-up: scale not given: the % may be the effect or the level left
Rattus norvegicus [13] = test: Antihypertensive activity in spontaneously hypertensive rat model assessed as reduction in blood pressure at 3 mg/kg, po after 24 hrs; format: functional; set-up: scale not given: the % may be the effect or the level left
Rattus norvegicus [14] = test: Antihypertensive activity in spontaneously hypertensive rat model assessed as reduction in blood pressure at 1 mg/kg, po after 3 hrs; format: functional; set-up: scale not given: the % may be the effect or the level left
Rattus norvegicus [15] = test: Antihypertensive activity in spontaneously hypertensive rat model assessed as reduction in blood pressure at 1 mg/kg, po after 24 hrs; format: functional; set-up: scale not given: the % may be the effect or the level left
Rattus norvegicus [16] = test: Antianxiety activity in Long-Evans rat assessed as reduction in motor activity at 5 mg/kg, po after 2 hrs relative to vehicle-treated control; format: functional; set-up: scale not given: the % may be the effect or the level left
Rattus norvegicus [17] = species: Rattus norvegicus; test: animal or person; format: functional; details: Charles River, route oral
Description: Antidiarrheal activity in Charles River rat assessed as inhibition of castor oil-induced diarrhea by measuring protected animals at 0.5 mg/kg, po administered 1 hr prior to castor oil challenge measured after 1 hr relative to vehicle-treated control

Mus musculus [18] = test: Increase in footshock-induced fighting behavior in albino BALB/cJ mouse at 10 mg/kg, po after 30 to 90 mins; format: functional
Mus musculus [19] = test: Analgesic activity in mouse assessed as inhibition of acetic acid-induced writhing at 16 mg/kg, po administered 30 mins prior to acetic acid challenge measured after 5 mins for 20 mins; format: functional
Rattus norvegicus [20] = test: Analgesic activity in Sprague-Dawley rat assessed as increase in pain threshold at 60 mg/kg, po after 15 to 90 mins by tail flick test; format: functional
Mus musculus [21] = test: Antianxiety activity in albino BALB/cJ mouse assessed as reduction in footshock-induced fighting behavior at 5 mg/kg, po after 30 to 90 mins; format: functional; set-up: scale not given: the % may be the effect or the level left
Rattus norvegicus [22] = test: Antianxiety activity in Long-Evans rat assessed as reduction in motor activity at 40 mg/kg, po after 2 hrs relative to vehicle-treated control; format: functional; set-up: scale not given: the % may be the effect or the level left

CCCCCC(C)C(C)c1cc(O)c2c(c1)OC(C)(C)C1CC=C(C)CC21 (stereo not given)
Activity (Rattus norvegicus [1]): 81%
minimal effective dose (Mus musculus [2]): 20 mg/kg
LD50 [3]: ≥ 1000 mg/kg
Activity (Rattus norvegicus [4]): 52%
ED50 (Mus musculus [5]): 7.9 mg/kg
Activity (Rattus norvegicus [6]): 60%
minimal effective dose (Rhesus monkey): 1 mg/kg
Activity (Mus musculus [7]): 89%
Activity (Mus musculus [8]): inactive

CC1CCC2=C(C1)c1c(O)cc(C(C)CCc3ccc(F)cc3)cc1OC2(C)C (stereo not given)
Activity (Rattus norvegicus [1]): 23%
Activity (Rattus norvegicus [9]): 70%
inhibition in vivo at 10 mg/kg (Mus musculus [10]): 27%
Activity (Rattus norvegicus [11]): 72%
Activity (Rattus norvegicus [12]): 28%
LD50 [3]: ≥ 1000 mg/kg
Activity (Rattus norvegicus [13]): 8%
Activity (Rattus norvegicus [14]): 8%
Activity (Rattus norvegicus [15]): 5%

C#CCN1CCC2=C(C1)c1c(O)cc(C(C)CCCc3ccc(C)cc3)cc1OC2(C)C (stereo not given)
Activity (Rattus norvegicus [1]): 46%
Activity (Rattus norvegicus [16]): 24%
inhibition in vivo at 0.5 mg/kg (Rattus norvegicus [17]): 0%
Activity (Mus musculus [18]): 17%
LD50 [3]: ≥ 1000 mg/kg
inhibition in vivo at 16 mg/kg (Mus musculus [19]): 32%

CN1C(=O)CN=C(c2ccccc2)c2cc(Cl)ccc21 [DIAZEPAM]
Activity (Rattus norvegicus [16]): 15%
Activity (Rattus norvegicus [20]): 64%
Activity (Mus musculus [21]): 95%
Activity (Rattus norvegicus [22]): 60%
ED50 (Mus musculus [5]): 4 mg/kg
minimal effective dose (Rhesus monkey): 1 mg/kg
